Source: patent US5659049A, “Antioxidant, antiphospholipase derivatives of ricinoleic acid” (Virginia Commonwealth University, priority 1995, dated 1997)

Test system: N. naja cobra venom phospholipase
Experiment: In vitro inhibition of N. naja cobra venom phospholipase (FIG. 8)
Format: biochemical

Q: For `CCCCCCC(C/C=C\CCCCCCCC(=O)O)OC(=O)CCCCCCCCC(=O)O` (stereo not shown) [RISE-1, Ricinoleic Acid Sebacyl Ester], which “Inhibition of N. naja cobra venom phospholipase” value is on record?
A: dose related, selective in vitro inhibition
